≈ marks a conversion by molar mass, not a printed value. Structures can show the parent of a compound that is named as a salt. Where two headings read alike, the source gives them in different places. Peptide text beside a SMILES is read from it.
Assays:
K. peneumoniae ATCC4352 = assay: organism not typed; assay type: cell-based
Protocol: (§1) Bacterial strains were purchased from the American Type Culture Collection (ATCC). All clinical strains were isolated from human clinical specimens by the Medical Laboratory Center of Zhongda Hospital (Nanjing, Jiangsu, China). Ndm-1, tem-1, ctx-m-1, shv-1 -carrying bacteria were constructed as previously described. The recombinant bacteria carrying drug-resistant genes were prepared in LB nutrient and induced by IPTG (1 mM) for 4 h before text. Other bacterial strains were respectively prepared in MHB and Columbia Blood Agar Base.
(§2) A standard micro-broth serial dilution assay was used to measure MIC of peptides. MIC was obtained by a microplate reader at 600 nm. MBC was determined as previously described.

[1] = tested on: K. peneumoniae B9 (ESBLs (+)); assay: organism not typed; assay type: cell-based
Protocol: as §1, §2

[2] = tested on: K. peneumoniae B4 (ESBLs (+)); assay: organism not typed; assay type: cell-based
Protocol: as §1, §2

[3] = tested on: K. peneumoniae B6 (ESBLs (+)); assay: organism not typed; assay type: cell-based
Protocol: as §1, §2

MRSE N104 = assay: microbe, parasite or virus in culture; assay type: cell-based, Staphylococcus epidermidis
Protocol: as §1, §2

MSSE E8 = assay: microbe, parasite or virus in culture; assay type: cell-based, Staphylococcus epidermidis; settings: MSSE E8, clinical strain
Protocol: as §1, §2

MRSE N109 = assay: microbe, parasite or virus in culture; assay type: cell-based, Staphylococcus epidermidis
Protocol: as §1, §2

MSSE E3 = assay: microbe, parasite or virus in culture; assay type: cell-based, Staphylococcus epidermidis; settings: MSSE E3, clinical strain
Protocol: as §1, §2

E. cloacae S1 (AmpC (+)) = assay: microbe, parasite or virus in culture; assay type: cell-based
Protocol: as §1, §2

[4] = tested on: P. aeruginosa T1 (ESBLs (+)); assay: microbe, parasite or virus in culture; assay type: cell-based
Protocol: as §1, §2

S. aureus ATCC25923 = assay: microbe, parasite or virus in culture; assay type: cell-based
Protocol: as §1, §2

E. coli A5 (ESBLs (+)) = assay: microbe, parasite or virus in culture; assay type: cell-based
Protocol: as §1, §2

E. coli A9 (ESBLs (+)) = assay: microbe, parasite or virus in culture; assay type: cell-based
Protocol: as §1, §2

Shigella flexneri = assay: microbe, parasite or virus in culture; assay type: cell-based
Protocol: as §1, §2

[5] = tested on: P. aeruginosa T6 (ESBLs (+)); assay: microbe, parasite or virus in culture; assay type: cell-based
Protocol: as §1, §2

P. aeruginosa ATCC27853 = assay: microbe, parasite or virus in culture; assay type: cell-based
Protocol: as §1, §2

E. coli ATCC25922 = assay: microbe, parasite or virus in culture; assay type: cell-based; settings: micro-broth serial dilution, 600 nm
Protocol: as §1, §2

S. epidermidis ATCC35984 = assay: microbe, parasite or virus in culture; assay type: cell-based
Protocol: as §1, §2

E. cloacae S3 (AmpC (+)) = assay: microbe, parasite or virus in culture; assay type: cell-based
Protocol: as §1, §2

E. faecalis = assay: microbe, parasite or virus in culture; assay type: cell-based
Protocol: as §1, §2

E. faecium = assay: microbe, parasite or virus in culture; assay type: cell-based
Protocol: as §1, §2

E. coli A2 (ESBLs (+)) = assay: microbe, parasite or virus in culture; assay type: cell-based
Protocol: as §1, §2

S. pneumoniae ATCC 49619 = assay: microbe, parasite or virus in culture; assay type: cell-based
Protocol: as §1, §2

[6] = tested on: P. aeruginosa T8 (ESBLs (+)); assay: microbe, parasite or virus in culture; assay type: cell-based
Protocol: as §1, §2

PRSP P105 = assay: microbe, parasite or virus in culture; assay type: cell-based, Streptococcus pneumoniae
Protocol: as §1, §2

PRSP P112 = assay: microbe, parasite or virus in culture; assay type: cell-based, Streptococcus pneumoniae
Protocol: as §1, §2

PISP F22 = assay: microbe, parasite or virus in culture; assay type: cell-based, Streptococcus pneumoniae; settings: PISP F22, clinical strain
Protocol: as §1, §2

PISP F34 = assay: microbe, parasite or virus in culture; assay type: cell-based, Streptococcus pneumoniae; settings: PISP F34, clinical strain
Protocol: as §1, §2

MRSA M108 = assay: microbe, parasite or virus in culture; assay type: cell-based, Staphylococcus aureus
Protocol: as §1, §2

MRSA M101 = assay: microbe, parasite or virus in culture; assay type: cell-based, Staphylococcus aureus
Protocol: as §1, §2

MSSA D4 = assay: microbe, parasite or virus in culture; assay type: cell-based, Staphylococcus aureus; settings: MSSA D4, clinical strain
Protocol: as §1, §2

MSSA D1 = assay: microbe, parasite or virus in culture; assay type: cell-based, Staphylococcus aureus; settings: MSSA D1, clinical strain
Protocol: as §1, §2

[7] = tested on: Penicillin-resistant E. coli; assay: Local E. coli infection in scalded mouse model; assay type: in vivo, mice; settings: 7th day; MSI-1 5 and 10 mg/kg, polymyxin B; p<0.01 vs the model group
Protocol: To further investigate whether MSI-1 could protect from bacterial infection of the skin, mice were anesthetized with pentobarbital sodium (50 mg/kg, i.p) and shaved on the dorsal surfaces. The depilated skin was secured with 2-cm-diameter plastic containers that filled up with boiling water at contact time 10 s. Afterwards, a full-thickness wound (2 cm in diameter) was cut on the burned skin of each mouse. Penicillin-resistant E. coli suspension (100 µl, 1× 10^10 CFU/ml) was slowly inoculated over wound with a pipette tip, and a gentle stream of air was aimed over the inoculation site until skin appeared wet but absent of any standing volume from the inoculum suspension. Two hours later, vehicle (3% CMC-Na), MSI-1 or polymyxin, which was suspended in sterile CMC-Na (3%) in PBS at concentration of 10, 5, 2.5 mg/ml (MSI-1) or 5 mg/ml (polymyxin), was inoculated on the same area with a pipette tip, 1 ml/kg, once a day (n=15 per group). Mice were fed in cages individually to avoid cross infection and were treated daily for 7 consecutive days. At 3rd and 7th days, cutaneous wound healing and bacteria counts in skin lesion were measured. Moreover, 12 h after the last treatment, blood samples were collected from the retro-orbital venous plexus under anesthesia (pentobarbital sodium, 50 mg/kg). Finally, all animals were euthanized by cervical dislocation to collect the lung samples for counting live bacteria. The contents of TNF-α and IL-6 in skin homogenates and serum were measured by ELISA. Skin lesion was fixed by 4% paraformaldehyde for H&E staining. The expression levels of EGF and VEGF in skin lesion were examined by immunohistochemistry. In addition, the wound scratch assay was also performed on HaCaT cells to further test whether MSI-1 improved wound healing by promoting keratinocyte migration.

[8] = tested on: penicillin resistant-E. coli isolates; assay: Acute systemic E. coli infection in mice; assay type: in vivo, BALB/c mice; settings: 7 days; polymyxin 5 mg/kg
Protocol: BALB/c mice (5-6 weeks) were purchased from the Laboratory Animal Center of Yangzhou University (Yangzhou, Jiangsu, China) and intraperitoneally (ip) injected with 500 μl (5× 10^8 CFU/ml) of penicillin resistant-E. coli isolates. Mice in MSI-1 treated groups (10, 5 and 2.5 mg/kg, n=16/group) and polymyxin treated group (5 mg/kg) were administered after 2 h post bacterial inoculation. After 12 h, six mice in each group were anesthetized with pentobarbital sodium (50 mg/kg body weight, i.p) and euthanized by cervical dislocation to count bacterial colonies in blood, lung, spleen, kidney and liver. Lung homogenates were collected for Gram staining. Moreover, serum TNF-α and IL-6 were measured by ELISA kits. The procedure of H&E staining for mouse lung was adapted from a published report. The survival and weight of other mice were monitored daily up to 7 days.

[9] = Staphylococcus epidermidis, MRSE
[10] = Staphylococcus epidermidis, read-out: MIC
[11] = Staphylococcus aureus, read-out: MIC
[12] = Streptococcus pneumoniae, read-out: MIC

## CC[C@H](C)[C@H](NC(=O)CN)C(=O)NCC(=O)N[C@@H](CCCCN)C(=O)N[C@@H](Cc1ccccc1)C(=O)N[C@@H](CC(C)C)C(=O)N[C@@H](CCCCN)C(=O)N[C@@H](CCCCN)C(=O)N[C@@H](C)C(=O)N[C@@H](CCCCN)C(=O)N[C@@H](CCCCN)C(=O)N[C@@H](Cc1ccccc1)C(=O)NCC(=O)N[C@@H](CCCCN)C(=O)N[C@@H](C)C(=O)N[C@@H](Cc1ccccc1)C(=O)N[C@H](C(=O)N[C@@H](CCCCN)C(=O)N[C@H](C(=O)N[C@@H](CC(C)C)C(=O)N[C@@H](CCCCN)C(=O)N[C@@H](CCCCN)C(N)=O)[C@@H](C)CC)C(C)C [MSI-78, pexiganan] (H-GIGKFLKKAKKFGKAFVKILKK-NH2)
K. peneumoniae ATCC4352
  MIC: 8 µg/mL (≈ 3.23 µM)
[1]; K. peneumoniae B9 (ESBLs (+)), clinical strain
  MIC: 32 µg/mL (≈ 12.9 µM)
[2]; K. peneumoniae B4 (ESBLs (+)), clinical strain
  MIC: 16 µg/mL (≈ 6.46 µM)
[3]; K. peneumoniae B6 (ESBLs (+)), clinical strain
  MIC: 16 µg/mL (≈ 6.46 µM)
MRSE N104; MRSE N104, clinical strain
  MIC: 32 µg/mL (≈ 12.9 µM)
MSSE E8
  MIC: 16 µg/mL (≈ 6.46 µM)
MRSE N109; MRSE N109, clinical strain
  MIC: 16 µg/mL (≈ 6.46 µM)
MSSE E3
  MIC: 32 µg/mL (≈ 12.9 µM)
E. cloacae S1 (AmpC (+)); E. cloacae S1 (AmpC (+)), clinical strain
  MIC: 16 µg/mL (≈ 6.46 µM)
[4]; P. aeruginosa T1 (ESBLs (+)), clinical strain
  MIC: 32 µg/mL (≈ 12.9 µM)
S. aureus ATCC25923
  MIC: 16 µg/mL (≈ 6.46 µM)
E. coli A5 (ESBLs (+)); E. coli A5 (ESBLs (+)), clinical strain
  MIC: 16 µg/mL (≈ 6.46 µM)
E. coli A9 (ESBLs (+)); E. coli A9 (ESBLs (+)), clinical strain
  MIC: 16 µg/mL (≈ 6.46 µM)
Shigella flexneri
  MIC: 32 µg/mL (≈ 12.9 µM)
[5]; P. aeruginosa T6 (ESBLs (+)), clinical strain
  MIC: 16 µg/mL (≈ 6.46 µM)
P. aeruginosa ATCC27853
  MIC: 16 µg/mL (≈ 6.46 µM)
E. coli ATCC25922
  MIC: 16 µg/mL (≈ 6.46 µM)
S. epidermidis ATCC35984
  MIC: 16 µg/mL (≈ 6.46 µM)
E. cloacae S3 (AmpC (+)); E. cloacae S3 (AmpC (+)), clinical strain
  MIC: 16 µg/mL (≈ 6.46 µM)
E. faecalis
  MIC: 16 µg/mL (≈ 6.46 µM)
E. faecium
  MIC: 8 µg/mL (≈ 3.23 µM)
E. coli A2 (ESBLs (+)); E. coli A2 (ESBLs (+)), clinical strain
  MIC: 8 µg/mL (≈ 3.23 µM)
S. pneumoniae ATCC 49619
  MIC: 16 µg/mL (≈ 6.46 µM)
[6]; P. aeruginosa T8 (ESBLs (+)), clinical strain
  MIC: 16 µg/mL (≈ 6.46 µM)
PRSP P105; PRSP P105, clinical strain
  MIC: 16 µg/mL (≈ 6.46 µM)
PRSP P112; PRSP P112, clinical strain
  MIC: 32 µg/mL (≈ 12.9 µM)
PISP F22
  MIC: 16 µg/mL (≈ 6.46 µM)
PISP F34
  MIC: 32 µg/mL (≈ 12.9 µM)
MRSA M108; MRSA M108, clinical strain
  MIC: 16 µg/mL (≈ 6.46 µM)
MRSA M101; MRSA M101, clinical strain
  MIC: 32 µg/mL (≈ 12.9 µM)
MSSA D4
  MIC: 32 µg/mL (≈ 12.9 µM)
MSSA D1
  MIC: 16 µg/mL (≈ 6.46 µM)

## Polymyxin B
[7]
  bacterial colonies in the lung and blood: obviously decreased
[8]
  body weight: marked weight maintenance effect

## CC1(C)S[C@@H]2[C@H](NC(=O)Cc3ccccc3)C(=O)N2[C@H]1C(=O)O [Penicillin, Penicillin G sodium salt]
K. peneumoniae ATCC4352; read-out: MIC
  MIC: 1 µg/mL
[1]
  MIC: > 256 µg/mL
[2]
  MIC: > 256 µg/mL
[3]
  MIC: > 256 µg/mL
MRSE N104; [9]
  MIC: > 256 µg/mL
MSSE E8; [10]
  MIC: 1 µg/mL
MRSE N109; [9]
  MIC: > 256 µg/mL
MSSE E3; [10]
  MIC: 2 µg/mL
E. cloacae S1 (AmpC (+)); Enterobacter cloacae
  MIC: > 256 µg/mL
[4]; Pseudomonas aeruginosa
  MIC: > 256 µg/mL
S. aureus ATCC25923; [11]
  MIC: 0.125 µg/mL
E. coli A5 (ESBLs (+)); Escherichia coli
  MIC: > 256 µg/mL
E. coli A9 (ESBLs (+)); Escherichia coli
  MIC: > 256 µg/mL
Shigella flexneri
  MIC: > 256 µg/mL
[5]; Pseudomonas aeruginosa
  MIC: > 256 µg/mL
P. aeruginosa ATCC27853; Pseudomonas aeruginosa, read-out: MIC
  MIC: 0.5 µg/mL
E. coli ATCC25922; Escherichia coli, read-out: MIC
  MIC: 0.25 µg/mL
S. epidermidis ATCC35984; [10]
  MIC: 0.5 µg/mL
E. cloacae S3 (AmpC (+)); Enterobacter cloacae
  MIC: > 256 µg/mL
E. faecalis; Enterococcus faecalis, read-out: MIC
  MIC: > 256 µg/mL
E. faecium; Enterococcus faecium, read-out: MIC
  MIC: > 256 µg/mL
E. coli A2 (ESBLs (+)); Escherichia coli
  MIC: > 256 µg/mL
S. pneumoniae ATCC 49619; Streptococcus pneumoniae, ATCC49619, read-out: MIC
  MIC: 0.25 µg/mL
[6]; Pseudomonas aeruginosa
  MIC: > 256 µg/mL
PRSP P105; Streptococcus pneumoniae, PRSP
  MIC: > 256 µg/mL
PRSP P112; Streptococcus pneumoniae, PRSP
  MIC: > 256 µg/mL
PISP F22; [12]
  MIC: 1 µg/mL
PISP F34; [12]
  MIC: 0.5 µg/mL
MRSA M108; Staphylococcus aureus, MRSA
  MIC: > 256 µg/mL
MRSA M101; Staphylococcus aureus, MRSA
  MIC: > 256 µg/mL
MSSA D4; [11]
  MIC: 0.125 µg/mL
MSSA D1; [11]
  MIC: 0.5 µg/mL

— paper PMC6956804, “Potent antibacterial activity of MSI-1 derived from the magainin 2 peptide against drug-resistant bacteria” (Theranostics, 2020)
